Test results as given in patent publication US5475034A, “Topically administrable compositions containing 3-benzoylphenylacetic acid derivatives for treatment of ophthalmic inflammatory disorders” (Alcon Laboratories, Inc., priority 1994, dated 1995).
Read-outs that look alike come from different tables or passages of the source.

Experiments:
[1] = biological target: T1, prostaglandin H synthase (cyclooxygenase) (Ovis aries, UniProt P05979); assay: In vitro inhibition of cyclooxygenase (polarographic oxygen consumption, conversion of arachidonic acid to prostaglandin H2); assay type: biochemical, sheep; conditions: for IC50: sheep vesicular gland microsomal enzyme, pH 7.4, 30° C.; for less effective inhibitors of cyclooxygenase activity in vitro: versus free carboxylic acid analogues
T1 construct: sheep vesicular gland microsomal powder; from tissue; host or cells: sheep vesicular gland (lipid-depleted microsomal powder, solubilized)
T1 sequence (P05979 25-600): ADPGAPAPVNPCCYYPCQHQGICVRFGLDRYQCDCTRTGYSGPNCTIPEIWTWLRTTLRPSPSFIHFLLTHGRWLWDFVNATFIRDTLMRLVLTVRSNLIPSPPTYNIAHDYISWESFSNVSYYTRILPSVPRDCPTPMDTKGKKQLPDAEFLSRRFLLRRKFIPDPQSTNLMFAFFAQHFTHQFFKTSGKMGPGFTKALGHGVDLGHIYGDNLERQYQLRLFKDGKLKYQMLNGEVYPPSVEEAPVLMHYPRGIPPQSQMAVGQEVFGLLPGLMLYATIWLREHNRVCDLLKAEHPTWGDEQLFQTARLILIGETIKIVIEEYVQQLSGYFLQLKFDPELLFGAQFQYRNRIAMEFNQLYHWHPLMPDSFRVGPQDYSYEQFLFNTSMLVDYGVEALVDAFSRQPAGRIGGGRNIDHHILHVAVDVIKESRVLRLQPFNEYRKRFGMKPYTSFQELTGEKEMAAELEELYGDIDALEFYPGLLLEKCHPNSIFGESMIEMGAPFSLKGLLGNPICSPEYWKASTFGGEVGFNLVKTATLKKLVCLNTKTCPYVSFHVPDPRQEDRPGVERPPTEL
Method: In vitro anti-inflammatory activity of 2-amino-3-benzoylbenzeneacetic acid analogues was tested by polarographically monitoring the inhibition in the rate of oxygen consumption (Cook H. W., Ford G., and Lands WEM, Anal. Biochem. 96:341, 1979) in the conversion of arachidonic acid to prostaglandin H2 by prostaglandin H synthase (cyclooxygenase). Cyclooxygenase enzyme was prepared by solubilizing 20 mg of lipid-depletedsheep vesicular gland microsomal powder (Graff G., Stephenson J. H., et al., J. Biol. Chem. 253:7662, 1978) in 1.0 mL of buffer containing 50 mM phosphate, 5 mM diethyldithiocarbamic acid, and 2 μM hematin (pH 7.4). Incubations were carried out at 30° C. with a YSI-oxygen monitor (Model 53) in 50 mM phosphate/0.5 mM phenol buffer (pH 7.4) as described elsewhere (Graff G., and Anderson L. A., Prostaglandins 38:473, 1989).

[2] = test system: iris/ciliary body prostaglandin synthesis; assay: Ex vivo inhibition of iris/ciliary body prostaglandin synthesis after topical dosing; assay type: in vivo, New Zealand Albino (NZA) rabbits; conditions: for inhibition in vivo at 0.1 %: Oryctolagus cuniculus, 1 h, single topical dose of 0.1% drug solution/suspension 60 minutes prior to iris/ciliary body isolation, read-out: Ex Vivo Iris/Ciliary Body Total Prostaglandin Synthesis Inhibition
Method: Ex vivo anti-inflammatory activity of 2-amino-3-benzoylbenzeneacetic acid analogues was evaluated in naive New Zealand Albino (NZA) rabbits. In this test animals were dosed bilaterally with a single 50 μL aliquot of a 0.1% solution/suspension of vehicle, formulated test or reference compound. After 60 minutes of treatment, animals were euthanized, iris/ciliary body (ICB) quickly excised and placed into ice-cold PBS buffer (pH 7.4). The tissue was then weighed, homogenized in ice-cold 50 mM phosphate/0.5 mM phenol buffer (pH 7.4) and incubated for 10 minutes at 37° C. with 10 μM of [1-^14 C]-20:4.

[3] = test system: trauma-induced breakdown of the blood-aqueous-barrier; assay: In vivo trauma-induced (paracentesis) breakdown of the blood-aqueous-barrier: aqueous humor PGE2 and protein; design: species or system New Zealand Albino (NZA) rabbits; conditions: for inhibition in vivo at 0.1 %: Oryctolagus cuniculus, 0.5 h, read-out: In Vivo Paracentesis Protein Extravasation Inhibition
Method: In vivo anti-inflammatory activity of 2-amino-3-benzoylbenzeneacetic acid analogues was evaluated in the model of trauma-induced breakdown of the blood-aqueous-barrier in New Zealand Albino (NZA) rabbits. Animals were anesthetized prior to bilateral administration of a single topical 50 μL dose of a 0.1% solution/suspension of formulated test or reference compound. After 45 minutes of treatment ocular trauma was induced by paracentesis.

[4] = single topical dose of 0.1% drug solution/suspension 45 minutes prior to paracentesis, plasma protein influx into aqueous humor
[5] = single topical dose of 0.1% drug solution/suspension 45 minutes prior to paracentesis

| IC50 [1] | less effective inhibitors of cyclooxygenase activity in vitro [1] | SMILES | inhibition in vivo at 0.1 % [2] | inhibition in vivo at 0.1 % [3, 4] | In Vivo Aqueous Humor PGE2 Accumulation Inhibition [3, 5] | spectrum of inhibition of iris/ciliary body prostaglandins ([2]; individual prostaglandins) | ex vivo iris/ciliary body prostaglandin synthesis inhibition, result in words ([2]; rabbit, in vivo) | in vitro cyclooxygenase inhibition, result in words [1] | inhibition in vivo at 0.1 % [3] | in vivo anti-inflammatory activity, result in words ([3]; plasma protein influx and aqueous humor PGE2 accumulation) | in vivo anti-inflammatory activity, result in words [3] |
| --- | --- | --- | --- | --- | --- | --- | --- | --- | --- | --- | --- |
| 0.171 µM |  | Nc1c(CC(=O)O)cccc1C(=O)c1ccc(F)cc1 [4'-F OH, reference compound] |  | 42% |  |  |  |  |  |  |  |
| 0.029 µM |  | Nc1c(CC(=O)O)cccc1C(=O)c1ccc(Br)cc1 [Bromfenac, reference compound] | 44% | 62% | 98% |  |  |  |  |  |  |
| 0.07 µM |  | Nc1c(CC(=O)O)cccc1C(=O)c1ccc(Cl)cc1 [4'-Cl OH, 2-amino-3-(4-chloro-benzoyl)benzeneacetic acid, reference compound] |  | 72% | 99% |  |  |  |  |  |  |
| 19 µM | ≥ 3 orders of magnitude | NC(=O)Cc1cccc(C(=O)c2ccc(Br)cc2)c1N [Compound 15, 2-Amino-3-(4-bromobenzoyl)-phenylacetamide] | 23% | 64% | 97% |  |  |  |  |  |  |
| 0.25 µM |  | Nc1c(CC(=O)O)cccc1C(=O)c1ccccc1 [Amfenac, 2-amino-3-benzoylbenzeneacetic acid, reference compound] |  | 41% |  |  |  |  |  |  |  |
| 64 µM | ≥ 3 orders of magnitude | NC(=O)Cc1cccc(C(=O)c2ccccc2)c1N [Compound 8, 2-Amino-3-benzoyl-phenylacetamide] | 81% | 61% | 98% | inhibited to a similar extent | most effective inhibitor |  |  |  |  |

Second part, the molecule before the results:

| SMILES | IC50 [1] | less effective inhibitors of cyclooxygenase activity in vitro [1] | inhibition in vivo at 0.1 % [2] | inhibition in vivo at 0.1 % [3, 4] | In Vivo Aqueous Humor PGE2 Accumulation Inhibition [3, 5] | spectrum of inhibition of iris/ciliary body prostaglandins ([2]; individual prostaglandins) | ex vivo iris/ciliary body prostaglandin synthesis inhibition, result in words ([2]; rabbit, in vivo) | in vitro cyclooxygenase inhibition, result in words [1] | inhibition in vivo at 0.1 % [3] | in vivo anti-inflammatory activity, result in words ([3]; plasma protein influx and aqueous humor PGE2 accumulation) | in vivo anti-inflammatory activity, result in words [3] |
| --- | --- | --- | --- | --- | --- | --- | --- | --- | --- | --- | --- |
| NC(=O)Cc1cccc(C(=O)c2ccc(F)cc2)c1N [Compound 7, 2-Amino-3-(4-fluorobenzoyl)-phenylacetamide] | 133 µM | ≥ 3 orders of magnitude | 27% | 72% | 98% |  |  |  |  |  |  |
| NC(=O)Cc1cccc(C(=O)c2ccc(Cl)cc2)c1N [Compound 9, 2-Amino-3-(4-chlorobenzoyl)-phenylacetamide] | > 100 µM | ≥ 3 orders of magnitude | 29% | 65% | 98% |  |  |  |  |  |  |
| CNC(=O)Cc1cccc(C(=O)c2ccc(Br)cc2)c1N [Compound 16, 2-Amino-3-(4-bromobenzoyl)-N-methyl phenylacetamide] | 16 µM | ≥ 3 orders of magnitude | 48% | 62% | 93% |  |  |  |  |  |  |
| CCOC(=O)Cc1cccc(C(=O)c2ccc(Br)cc2)c1N [Compound 14, Ethyl-2-Amino-3-(4-bromobenzoyl)benzene acetate] | > 25 µM |  | 33% | 60% |  |  |  |  |  |  |  |
| O=C(O)Cc1ccccc1Nc1c(Cl)cccc1Cl [Diclofenac, reference compound] |  |  | 50% |  | 97% |  |  | somewhat less effective | 54% | somewhat less effective |  |
| CN(C)C(=O)Cc1cccc(C(=O)c2ccc(Br)cc2)c1N [4'-Br N(CH3)2, reference compound] | > 100 µM |  |  | 2% | -27% |  |  | inactive |  |  | inactive |
